According to US20030018025A1, “Certain 4-aminomethyl-2-substituted imidazole derivatives and 2-aminomethyl-4-substituted imidazole derivatives: new classes of dopamine receptor subtype specific ligands” (Neurogen Corporation, Corporation of the State of Delaware, priority 1995, published 2003):
Structures can show the parent of a compound that is named as a salt.

Row | SMILES | melting point [°C]
1 | c1ccc(-c2ncc(CN3CCC(c4ccccc4)CC3)[nH]2)cc1 (as salt: hydrochloride) [Compound 26, 2-Phenyl-4(5)-[(4-phenyl-piperidin-1-yl)-methyl]-imidazole dihydrochloride] | 238 to 240
2 | Fc1ccccc1-c1ncc(CN2CCC(c3ccccc3)CC2)[nH]1 (as salt: maleate) [Compound 52, 2-(2-Fluorophenyl)-4(5)[(4-phenyl-piperidin-1-yl)-methyl]-imidazole dimaleate] | 142 to 144
3 | O=C(c1ccccc1)c1ncc(CN2CCN(c3ncccn3)CC2)[nH]1 [Compound 116, 2-(benzoyl)-4(5)-[(4-(2-pyrimidinyl)-piperazin-1-yl)-methyl]-imidazole] | 177 to 179
4 | COc1ccc(Cl)cc1-c1ncc(CN2CCN(c3ccccc3OC)CC2)[nH]1 (as salt: hydrochloride) [Compound 43, 2-(5-Chloro-2-methoxyphenyl)-4(5)-[(4-(2-methoxyphenyl)-piperazin-1-yl)-methyl]-imidazole dihydrochloride] | 138 to 143
5 | CC(c1cnc(-c2ccccc2)[nH]1)N1CCC(Cc2ccccc2)CC1 (stereo not drawn) (as salt: hydrochloride) [Compound 91, 2-phenyl-4(5)-[1-((4-benzyl-piperidin-1-yl)-ethan-1-yl)]imidazole dihydrochloride salt] | 169 to 171
6 | COc1cc(Br)cc(-c2ncc(CN(C)C)[nH]2)c1OC (as salt: hydrochloride) [Compound 16, 2-(5-Bromo-2,3-dimethoxyphenyl)-4(5)-[(N,N-dimethyl)aminomethyl]-imidazole dihydrochloride] | 194
7 | Fc1ccnc(N2CCN(Cc3cnc(-c4ccccc4)[nH]3)CC2)n1 (as salt: hydrochloride) [Compound 58, 2-Phenyl-4(5)-[(4-(4-fluoro-2-pyrimidinyl)-piperazin-1yl)-methyl]imidazole dihydrochloride] | 188 to 190
8 | CCc1ccc(OC)c(-c2ncc(CN3CCN(c4ccccc4OC)CC3)[nH]2)c1 (as salt: hydrochloride) [Compound 55, 2-(5-Ethyl-2-methoxyphenyl-4(5)-[(4-(2-methoxyphenyl)-piperazin-1-yl)-methyl]-imidazoledihydrochloride] | 61 to 64
9 | COc1ccc(Br)cc1-c1ncc(CN(C)C)[nH]1 (as salt: hydrochloride) [Compound 1, 2-(5-bromo-2-methoxyphenyl)-4(5)-[(N,N-dimethyl)aminomethyl]-imidazole dihydrochloride] | 242 to 243
10 | Cc1ccc(Cl)cc1N1CCN(Cc2cnc(-c3ccccc3)[nH]2)CC1 (as salt: hydrochloride) [Compound 60, 2-Phenyl-4(5)-[(4(5-chloro-2-methylphenyl)-piperazin-1yl-)-methyl]imidazole dihydrochloride] | 142 to 145
11 | COc1ccccc1N1CCN(Cc2cnc(-c3ccccc3)[nH]2)CC1 [Compound 19, 2-phenyl-4-(5)-[(4-(2-methoxyphenyl)-piperazin-1-yl)-methyl]imidazole] | 105 to 107
12 | c1ccc(CC2CCN(Cc3cnc(-c4cccc5ccccc45)[nH]3)CC2)cc1 [Compound 92, 2-(1-naphthyl)-4(5)-[(4-benzyl-piperidin-1-yl)-methyl]imidazole] | 81 to 83
13 | Clc1ccc(N2CCN(Cc3cnc(-c4ccccc4)[nH]3)CC2)cc1Cl [Compound 61, 2-Phenyl-4(5)-[(4(3,4-dichlorophenyl)-piperazin-1-yl-)methyl]imidazole] | 179 to 181
14 | Ic1nc(-c2ccccc2)[nH]c1CN1CCN(c2ncccn2)CC1 (as salt: hydroiodid) [Compound 90, 2-phenyl-5-iodo-4(5)-[(4-(2-pyrimidinyl)piperazin-1-yl)methyl]-imidazole hydroiodide salt] | 196 to 199
15 | c1ccc(CC2CCN(Cc3ncc(-c4ccccc4)[nH]3)CC2)cc1 (as salt: fumarate) [Compound 77, 4-phenyl-2(5)-[(4-benzylpiperidin-1-yl)-methyl]imidazole] | 155 to 157
16 | COc1ccccc1N1CCN(Cc2cnc(-c3cccc(OC)c3OC)[nH]2)CC1 (as salt: hydrochloride) [Compound 21, 2-(2,3-Dimethoxyphenyl)-4(5)-[(4-(2-methoxyphenyl)-piperazin-1-yl)-methyl]-imidazole dihydrochloride] | 217 to 218
17 | Fc1ccc(N2CCN(Cc3cnc(-c4ccccc4)[nH]3)CC2)cc1 (as salt: hydrochloride) [Compound 56, 2-Phenyl-4(5)-[(4-(4-fluorophenyl)-piperazin-1-yl-)methyl]imidazole dihydrochloride] | 64 to 68
18 | COc1cccc(-c2ncc(CN3CCC(c4ccccc4)CC3)[nH]2)c1 (as salt: hydrochloride) [Compound 50, 2-(3-Methoxyphenyl)-4(5)[(4-phenyl-piperidin-1-yl)-methyl]-imidazole dihydrochloride] | 114 to 117
19 | COc1ccc(-c2nc(CN3CCC(c4ccccc4)CC3)c[nH]2)cc1 (as salt: hydrochloride) [Compound 47, 2-(4-Methoxyphenyl) -4(5)[(4-phenyl-piperidin-1-yl)-methyl]-imidazole dihydrochloride] | 196 to 199
20 | COc1ccccc1N1CCN(Cc2cnc(-c3ccc(F)cc3)[nH]2)CC1 [Compound 20, 2-(4-Fluorophenyl)-4(5)-[(4-(2-methoxyphenyl)-piperazin-1-yl)-methyl]-imidazole] | 95 to 97

More lines, now with the values ahead:

Row | melting point [°C] | SMILES
21 | 133 to 135 | c1ccc(-c2ncc(CCCN3CCN(c4ncccn4)CC3)[nH]2)cc1 [Compound 125, 2-phenyl-4(5)-[(4-(2-pyrimidinyl)-piperazin-1-yl)-propan-1-yl]-imidazole]
22 | 210 to 213 | c1cnc(N2CCN(Cc3cnc(C4CCCCC4)[nH]3)CC2)nc1 [Compound 128, 2-cyclohexyl-4(5)-[(4-(2-pyrimidinyl)-piperizin-1-yl)-methyl]-imidazole]
23 | 189 to 191 | c1ccc(CC2CCN(CC3CCCc4[nH]c(-c5ccccc5)nc43)CC2)cc1 (stereo not drawn) [Compound 138, 2-phenyl-7-[(4-benzyl-piperidin-1-yl)-methyl]-4,5,6,7-tetrahydrobenzimidazole]
24 | 142 to 144 | c1ccc(-c2ncc(CCN3CCN(c4ncccn4)CC3)[nH]2)cc1 [Compound 143, 2-phenyl-4(5)-[(4-(2-pyrimidinyl)-piperazin-1-yl)-ethan-1-yl]-imidazole]
25 | 221 to 225 | c1ccc(-c2nc(-c3ccccc3)c(CN3CCN(c4ncccn4)CC3)[nH]2)cc1 [Compound 132, 2,5-diphenyl-4(5)-[(4-(2-pyrimidinyl)piperazin-1-yl)methyl]-imidazole]
26 | 143 to 148 | O=C(CCc1cnc(-c2ccccc2)[nH]1)N1CCN(c2ncccn2)CC1 [Compound 122, 2-phenyl-4(5)-[(4-(2-pyrimidinyl)-piperazin-1-yl)-propan-1-oyl]-imidazole]
27 | 235 to 236 | O=C(/C=C/c1cnc(-c2ccccc2)[nH]1)N1CCN(c2ncccn2)CC1 [Compound 119, 2-phenyl-4(5)-[(4-(2-pyrimidinyl)-piperazin-1-yl)-propen-1-oyl]-imidazole]
28 | 178 to 180 | Cc1ccc(-c2ncc(CN3CCN(c4ncccn4)CC3)[nH]2)cc1 [Compound 133]
29 | 231 to 232 | O=C(c1cnc(-c2ccccc2)[nH]1)N1CCN(c2ncccn2)CC1 [Compound 144, 2-phenyl-4(5)-N-[(4-(2-pyrimidinyl)piperazin-1-yl)-carboxamido]-imidazole]
30 | 130 to 135 | C[C@@H]1CN(c2ncccn2)C[C@H](C)N1Cc1cnc(-c2ccccc2)[nH]1 [Compound 140, 2-phenyl-4(5)-[(4-(2-pyrimidinyl)-cis-2,6-dimethylpiperazin-1-yl)-methyl]-imidazole]
